The values that follow are results of earlier work, collected in patent US20250152551A1, “DOCETAXEL COMPOSITIONS AND METHODS” (ZHUHAI BEIHAI BIOTECH CO., LTD., priority 2022, published 2025).

SMILES strings stand for the structures.

Data set [1] has as its system microtubule depolymerization.

In the case of `CC(=O)O[C@@]12CO[C@@H]1C[C@H](O)[C@@]1(C)C(=O)[C@H](O)C3=C(C)[C@@H](OC(=O)[C@H](O)[C@@H](NC(=O)OC(C)(C)C)c4ccccc4)C[C@@](O)([C@@H](OC(=O)c4ccccc4)[C@H]21)C3(C)C` [docetaxel], the Solubility in water entry is “practically insoluble in water”. In data set [1], the “Potency in inhibiting microtubule depolymerization relative to paclitaxel” value is “about twice as potent as paclitaxel”.
